Reference: ChEMBL document CHEMBL1201862, “PubChem BioAssay data set” (2004)
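Test compounds were applied to cells in 96-well plates for 48 hours at 5 doses. GI50 is the concentration that inhibits growth by half.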 Activity calls are given as the source filed them. No stated cut-off is given here; in the data, active = GI50 up to about 1.1 µM and inactive = higher.

How the values were obtained:
Experiment in all cases: NCI anticancer screen, dose series, 48 h
[1] = tested on: NCI-H23
[2] = tested on: SNB-19
[3] = tested on: LOX IMVI
[4] = tested on: SNB-75
[5] = tested on: SK-MEL-5
[6] = tested on: MDA-N
[7] = tested on: OVCAR-5
[8] = tested on: K562
[9] = tested on: KM12
[10] = tested on: UACC-257
[11] = tested on: M14
[12] = tested on: MOLT-4
[13] = tested on: IGROV-1
[14] = tested on: COLO 205
[15] = tested on: HOP-62
[16] = tested on: SK-MEL-2
[17] = tested on: MDA-MB-231
[18] = tested on: HCT-116
[19] = tested on: SF-539
[20] = tested on: NCI-H226

Measured: GI50

O=C1/C(=C\c2cccc(Oc3ccccc3)c2)S(=O)(=O)C(c2ccccc2)N1c1cccc(Cl)c1 (stereo not drawn)
inactive: [1] 51.4 µM | [2] 68.9 µM | [3] 19 µM | [4] > 100 µM | [5] 43.9 µM | [6] 25.9 µM | [7] > 100 µM | [8] 26.4 µM | [9] 58.1 µM | [10] 74.6 µM | [11] 40.8 µM | [12] 30.1 µM | [13] 38.9 µM | [14] 69.8 µM | [15] 98.2 µM | [16] > 100 µM | [17] > 100 µM | [18] 29.4 µM | [19] 36.1 µM

C[C@H](C1CC2(C)OC2(C)C(=O)O1)[C@H]1CC[C@H]2[C@@H]3[C@@H]4O[C@@H]4[C@@]4(O)CC=CC(=O)[C@]4(C)[C@H]3CC[C@]12C (stereo partly drawn)
inactive: [1] > 50 µM | [2] 29.6 µM | [3] > 50 µM | [4] 8.18 µM | [5] > 50 µM | [6] > 50 µM | [7] > 50 µM | [8] > 50 µM | [9] > 50 µM | [10] > 50 µM | [11] > 50 µM | [12] > 50 µM | [13] > 50 µM | [14] > 50 µM | [15] 37.8 µM | [20] > 50 µM | [16] > 50 µM | [17] > 50 µM | [18] > 50 µM

CC(C)(CC(O)C#N)/[N+]([O-])=[N+](\[O-])C(C)(C)CC(O)C#N (stereo not drawn)
inactive: [1] 25.4 µM | [2] 84.3 µM | [3] 17.6 µM | [4] 23.7 µM | [5] 29.2 µM | [6] 20.7 µM | [7] 23.5 µM | [8] 14.4 µM | [9] 30.7 µM | [10] 20.4 µM | [11] 16 µM | [12] 10.3 µM | [13] 21.2 µM | [14] 14.8 µM | [15] 19.4 µM | [20] 25.6 µM | [16] 43 µM | [17] 23.9 µM | [18] 15.2 µM

O=C(Cc1ccc([N+](=O)[O-])cc1)OCC#CCOC(=O)Cc1ccc([N+](=O)[O-])cc1
inactive: [1] > 10 µM | [2] > 10 µM | [3] > 10 µM | [4] > 10 µM | [5] > 10 µM | [6] > 10 µM | [7] > 10 µM | [8] > 10 µM | [9] > 10 µM | [10] > 10 µM | [11] > 10 µM | [12] > 10 µM | [13] > 10 µM | [16] > 10 µM | [17] > 10 µM | [19] > 10 µM

c1csc(-c2cc(-c3ccsc3)cs2)c1
inactive: [1] 14.9 µM | [3] > 100 µM | [4] > 100 µM | [5] > 100 µM | [6] > 100 µM | [7] 63.1 µM | [8] > 100 µM | [9] > 100 µM | [10] > 100 µM | [11] > 100 µM | [12] 87.1 µM | [13] 45.2 µM | [14] > 100 µM | [15] 29.9 µM | [16] 98.6 µM | [17] > 100 µM | [18] > 100 µM | [19] 35.4 µM

CC1CNC(c2ccc(CN3CCC(C4CCN(Cc5ccc(C6=NC(C)CN6)cc5)CC4)CC3)cc2)=N1 (stereo not drawn)
inactive: [1] 28 µM | [2] 26.1 µM | [3] 22.7 µM | [4] 16.6 µM | [5] 36.2 µM | [6] 21.3 µM | [7] 24.9 µM | [8] 16.7 µM | [9] 15.7 µM | [10] 24.2 µM | [11] 20.2 µM | [12] 19.7 µM | [13] 37.2 µM | [14] 18.6 µM | [15] 14.9 µM | [16] 19.1 µM | [17] 17.7 µM | [18] 17.9 µM | [19] 20.3 µM

Cn1c2ccccc2n2c(N=O)c(-c3ccccc3)nc12
inactive: [1] 18.3 µM | [2] 30.1 µM | [3] > 100 µM | [4] 5.08 µM | [5] 14.8 µM | [6] 55.1 µM | [7] 59.3 µM | [8] > 100 µM | [9] 15.2 µM | [10] 34.3 µM | [11] 19.6 µM | [12] 52.7 µM | [13] 25.5 µM | [14] 10.2 µM | [15] 5.52 µM | [16] 33.1 µM | [17] 53.6 µM | [18] 87.9 µM

O=[N+]([O-])c1ccc2c(c1)nc1n2C(c2c(F)cccc2F)SC1 (stereo not drawn)
inactive: [1] > 100 µM | [2] > 100 µM | [3] > 100 µM | [4] 84.7 µM | [5] > 100 µM | [6] > 100 µM | [7] > 100 µM | [8] > 100 µM | [9] > 100 µM | [10] > 100 µM | [11] > 100 µM | [12] > 100 µM | [13] > 100 µM | [14] > 100 µM | [15] > 100 µM | [16] > 100 µM | [17] > 100 µM | [18] > 100 µM | [19] > 100 µM

CCCN1CCC(=O)N(CCC(F)(F)C(F)(F)C(F)(F)C(F)(F)C(F)(F)C(F)(F)F)C1=S
inactive: [1] > 100 µM | [2] > 100 µM | [4] > 100 µM | [5] > 100 µM | [6] > 100 µM | [7] > 100 µM | [8] > 100 µM | [9] 71 µM | [10] > 100 µM | [11] > 100 µM | [12] > 100 µM | [13] > 100 µM | [14] 69.7 µM | [15] > 100 µM | [20] > 100 µM | [17] > 100 µM | [18] > 100 µM | [19] > 100 µM

Cc1ccc(/N=C2/S/C(=C3/CCC=C3N3CCOCC3)N(c3ccc(Cl)cc3)/C2=N/c2ccc(C)cc2)cc1
inactive: [1] > 100 µM | [2] > 100 µM | [4] > 100 µM | [5] > 100 µM | [6] > 100 µM | [7] > 100 µM | [8] > 100 µM | [9] > 100 µM | [10] > 100 µM | [11] > 100 µM | [12] > 100 µM | [13] > 100 µM | [14] > 100 µM | [15] > 100 µM | [20] > 100 µM | [16] > 100 µM | [17] > 100 µM | [18] > 100 µM
